Data taken from US20210349077A1, “Method of quantifying induced membrane permeability and of screening compounds able to prevent said permeability” (Zarbio, priority 2020, published 2021).

Tests used:
[1] = Flow cytometric calcium permeabilization of phosphatidylserine liposomes (DiD membrane probe, Fluo-3 calcium probe); format: biochemical; conditions: for channel formation / permeabilization of membranes to calcium: summary statement, FIG. 10 and 12; for permeability of liposomes to calcium: peptide stock in DMSO, final concentration 10 μM
From the text: (§1) Unilamellar liposomes are created with Fluo-3 membrane-impermeant fluorescent dye sensitive to the concentration of calcium (an example of ion sensitive probe, ISP, at the FIG. 2). The buffer for the created liposomes is calcium-free, and can contain calcium-chelating agents, such as EGTA or EDTA. Both calcium-free and calcium-bound Fluo-3 effectively absorb light with wavelength of 488 nm (one of typical lasers used in flow cytometers, blue light). […] Measuring the fluorescence at 520 nm allows to distinguish the liposomes which contain free calcium and those which are impermeant to calcium.
(§2) To identify liposomes in the flow, lipids can be supplemented with a lipophilic dye such as 1,1′-dioctadecyl-3,3,3′,3′-tetramethylindodicarbocyanine (DiD), which serves as membrane probe (MP at the FIG. 2). […] However, after ion channels are formed in the particular liposome, the electrolytes are equilibrated between inside and outside of the liposome. Therefore, due to the presence of calcium outside, the liposomes with the channels will have high free calcium, so Fluo-3 will have intensive fluorescence.
(§3) In the flow cytometer, the appearance of channels is visible as increasing proportion of calcium-loaded liposomes compared with calcium-free liposomes. When every liposome becomes permeant to calcium, all liposomes will be presented as loaded with calcium. This condition is used for normalization and can be achieved in control experiments by the addition of calcium ionophore such as ionomycin.
Liposomes (400 nm) were made of phosphatidylserine with DiD and were extruded in the buffer without (A-C) or with (D-I) 1 mM Fluo-3. […] Liposomes with membrane but without calcium-sensitive probe in the presence of calcium. • D, E, F (Second row). Liposomes with both membrane and calcium-sensitive probe in the presence of calcium. • G, H, I (Third row). Liposomes with both membrane and calcium-sensitive probe in the absence of calcium. • A, D, G (First column). Liposomes only. • B, E, H (Second column). Liposomes with added 5 μM Aβ25-35. • C, F, I (Third column). Liposomes with added 5 μM Aβ25-35 followed by ionomycin.
Liposomes made of phosphatidylserine and contained both DiD and Fluo-3. In a calcium-containing medium, membranes are not permeant to calcium, so there is a minimal number of liposomes with increased levels of green fluorescence (A). […] Increasing concentration of amyloid peptide increases the number of permeant liposomes (C, D).
This figure summarizes data from experiments, described at the FIG. 10. Liposomes made of phosphatidylserine and contained both DiD and Fluo-3 were treated by various concentrations of Aβ25-35. For the treatment, the same stock solution of peptide in distilled water was added to the suspension of liposomes in a calcium-containing medium. The gate to count the number of permeabilized vesicles is shown at the density plot (left graph).
Phosphatidylserine liposomes were prepared to contain both DiD and Fluo-3 as described for previous figures. Liposomes were tested to be permeabilized by Aβ25-35. • A. Control PS liposomes with calcium (60 μM). Limited number of events is registered in the area corresponding to permeabilized vesicles. • B. Effect of Aβ1-42 (8 μM). […] Effect of ionomycin (50 nM, positive control).
In this experiment, stock solution of peptides was prepared in DMSO to extend the testing to the peptide which are not soluble in water-based excipients. […] There is no difference between the effects of the peptide that was dissolved initially in DMSO (“Lip+Pep/DMSO”) and water (not shown here). • C.
The permeabilization to calcium ions will be described first as an example. To detect calcium transmembrane transfer, calcium-sensitive probes are used, such as Fluo-3 or Fluo-4 which dramatically increase their fluorescence upon binding calcium. Liposomes are formed in a calcium-free medium containing calcium-sensitive probe. […]

[2] = Flow cytometric fluorescence test of phosphatidylcholine liposomes (DiD, Fluo-3); format: biochemical
From the text: as §1, §2, §3
Liposomes (400 nm) were made of phosphatidylcholine with DiD and were extruded in the buffer containing 1 mM Fluo-3 (A-H) or without Fluo-3 (I, J).
The effect of Aβ25-35 was the same in calcium-free medium with EGTA (F,G).

C[C@H](CCC(=O)O)C[C@H](C)C[C@H](C)C(=O)/C=C(\O)[C@H](C)C[C@H](C)C/C=C/[C@@H](C)[C@@H](O)[C@@H](C)[C@@H](O)C[C@@H]1CC[C@@](C)([C@H]2CC[C@@](C)([C@@H](C)O)O2)O1 [ionomycin]
permeabilization of liposomes (positive control) ([1]; 50 nM, calcium 60 μM): permeabilizes all liposomes | effect of ionomycin added following 5 μM Aβ25-35 ([1]; DiD-only vesicles and in the absence of calcium): did not produce any effect | Fluo-3 signal after ionomycin added following 5 μM Aβ25-35 ([1]; liposomes with Fluo-3, calcium present): did not further increase the Fluo-3 signal from vesicles with low DiD signal but additionally shifted upwards the part of the distribution with high DiD signal | fluorescence after ionophore addition ([2]; liposomes with 1 mM Fluo-3, calcium present): significantly increased fluorescence

Aβ1-42: full-length amyloid peptide
number of events in the area corresponding to permeabilized vesicles ([1]; 8 μM peptide, calcium 60 μM, compared with control): does not exceed same number observed in control experiment | channel formation / permeabilization of membranes to calcium [1]: does not create channels permeabilizing membranes to calcium

Aβ25-35: short fragment of beta-amyloid peptide that forms membrane channels (GSNKGAIIGLM; Amyloid-beta protein 42; UniProt P05067 696-706, looked up, fragment)
time for effects of the peptide to develop after addition to liposomes [1]: within the first minute | liposomes made permeant to calcium ([1]; 2 μM peptide, calcium-containing medium): makes some of liposomes permeant to calcium | green (Fluo-3) signal from vesicles ([1]; 5 μM peptide, 400 nm liposomes with 1 mM Fluo-3, extravesicular calcium present): increased green signal from vesicles only in the presence of both Fluo-3 and calcium | green signal from vesicles ([1]; 5 μM peptide, DiD-only liposomes or calcium-free buffer (EGTA)): did not have effect | change in number of permeabilized liposomes on prolonged incubation ([1]; incubation with the peptide for up to one hour): does not change the number of permeabilized liposomes | permeability of liposomes to calcium [1]: permeabilized liposomes | liposomes of total number that become permeant to calcium ([1]; phosphatidylserine liposomes, various conditions (FIG. 11)): up to 10% | channel formation / permeabilization of membranes to calcium [1]: efficiently permeabilize multiple liposomes | dependence of number of permeabilized liposomes on amount of added peptide ([1]; various concentrations, stock in distilled water, calcium-containing medium): linearly dependent on the amount of added peptide | effect on green signal compared with calcium-containing medium ([2]; calcium-free medium with EGTA): the same | green signal from vesicles ([2]; concentrations above 10 μM (20 μM, 50 μM), 400 nm liposomes with 1 mM Fluo-3, calcium present): slightly but reproducibly increased green signal from vesicles | shift of green fluorescence distribution ([2]; liposomes extruded without Fluo-3): still shifted the distribution upward

Aβ31-35: amyloid-beta peptide fragment tested at 10 μM from DMSO stock (IIGLM; Amyloid-beta protein 42; UniProt P05067 702-706, looked up, fragment)
permeability of liposomes to calcium [1]: did not affect the permeability of liposomes
